The text below walks through data of patent US11485742B2, “2-azaspiro[3.4]octane derivatives as M4 agonists” (NOVARTIS AG, priority 2019, dated 2022).

Assay [1] concerns the target T1, human cloned CHRM4 receptor (Homo sapiens, UniProt P08173).
T1 construct: expressed in transfected cells; host or cells: CHO-K1 (M4_CHO)
T1 sequence (P08173 1-479): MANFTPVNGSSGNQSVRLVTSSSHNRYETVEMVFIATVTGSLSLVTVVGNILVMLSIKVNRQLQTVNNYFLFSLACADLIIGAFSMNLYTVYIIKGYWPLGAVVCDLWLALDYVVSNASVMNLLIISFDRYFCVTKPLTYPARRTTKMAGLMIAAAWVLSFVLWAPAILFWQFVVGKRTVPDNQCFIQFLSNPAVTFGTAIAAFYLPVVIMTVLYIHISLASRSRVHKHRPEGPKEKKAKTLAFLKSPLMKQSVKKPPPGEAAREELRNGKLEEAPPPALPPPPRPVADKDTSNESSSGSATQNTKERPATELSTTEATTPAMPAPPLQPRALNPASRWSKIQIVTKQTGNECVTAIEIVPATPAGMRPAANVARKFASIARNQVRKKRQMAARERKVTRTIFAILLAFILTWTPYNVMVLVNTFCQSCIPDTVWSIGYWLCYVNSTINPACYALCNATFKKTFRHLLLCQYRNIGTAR
The assay is described as follows: CHRM4 Ca++ Flux Assay (M4_CHO cells, agonist mode). Type of assay: cell-based. The settings on record: for Emax / M4 FDSS PA %: Percent Activity (PA); for Emax: read-out: M4 FDSS PA %; for pEC50: geometric mean if tested more than once, read-out: M4 FDSS EC50. Put shortly:
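Agonist-mode calcium flux in an M4-expressing CHO-K1 line: compounds were dosed at 11 points in triplicate and fluorescence was tracked for 3 min. Cells were preloaded with Ca++ dye and kept in −Ca/−Mg HBSS with 20 μM ATP for 60 min. Efficacy is scaled to carbachol EC100; EC50s come from four-parameter regression, geometric mean across runs.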

Assay [2] deals with T2, Cloned human M1 receptor (CHRM1) (Homo sapiens, UniProt P11229).
T2 construct: expressed in transfected cells; host or cells: HEK293
T2 sequence (P11229 1-460): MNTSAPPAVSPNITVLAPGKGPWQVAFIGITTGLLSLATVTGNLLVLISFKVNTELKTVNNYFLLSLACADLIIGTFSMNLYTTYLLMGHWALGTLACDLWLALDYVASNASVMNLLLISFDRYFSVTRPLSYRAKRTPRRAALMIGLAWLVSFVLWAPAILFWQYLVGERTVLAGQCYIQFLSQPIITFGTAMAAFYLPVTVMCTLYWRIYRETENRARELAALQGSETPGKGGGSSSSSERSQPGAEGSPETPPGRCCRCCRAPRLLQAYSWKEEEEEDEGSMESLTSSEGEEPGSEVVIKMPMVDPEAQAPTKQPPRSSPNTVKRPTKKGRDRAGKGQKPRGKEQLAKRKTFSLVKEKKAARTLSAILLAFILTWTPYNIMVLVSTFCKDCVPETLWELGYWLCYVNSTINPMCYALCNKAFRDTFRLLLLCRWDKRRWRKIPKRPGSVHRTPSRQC
Put plainly: CHRM1 Ca++ Flux Assay (HEK293 M1 cells, agonist mode). The following applies: for Emax / M1 FDSS PA %: Percent Activity (PA); for Emax: read-out: M1 FDSS PA %; for pEC50: geometric mean if tested more than once, read-out: M1 FDSS EC50. Type of assay: cell-based. Put shortly: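 In agonist mode, compound-induced intracellular Ca++ mobilization was recorded for 3 min by fluorescent imager. The cells were HEK293 stably expressing cloned human CHRM1, in Ca/Mg-free HBSS with 20 mM HEPES. Triplicate 11-point dose-responses were fitted by four-parameter regression and normalized to the carbachol EC100 response.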

pEC50: −log10 of the molar value.

What is called pEC50 is the EC50 on a negative log10 scale, so that one unit is a factor of ten. As for `Fc1ccc(O[C@@H]2CCOC2)c(C2CCN([C@@H]3COC4(C3)CN(c3nnco3)C4)CC2)c1` [Example 1D, (S)-7-(4-(5-fluoro-2-(((R)-tetrahydrofuran-3-yl)oxy)phenyl)piperidin-1-yl)-2-(1,3,4-oxadiazol-2-yl)-5-oxa-2-azaspiro[3.4]octane], in assay [1], the Emax is 80% and the pEC50 was 7.68. Further, in assay [2], the Emax was determined as 69% and the pEC50 was 6.22.

As for `COCCOc1ccc(F)cc1C1CCN([C@@H]2COC3(C2)CN(c2ncco2)C3)CC1` [Example 4L, (S)-7-(4-(5-fluoro-2-(2-methoxyethoxy)phenyl)piperidin-1-yl)-2-(oxazol-2-yl)-5-oxa-2-azaspiro[3.4]octane], in assay [1], the Emax came to 52% and the pEC50 was 7.57. In assay [2], the Emax worked out at 66% and the pEC50 is 6.47.

Regarding `CC(C)(O)[C@H]1C[C@H](Oc2ccc(F)cc2C2CCN([C@@H]3COC4(C3)CN(c3nnco3)C4)CC2)C1` (single isomer, unassigned) [Example 2W, 2-((1S,3r)-3-(2-(1-((S)-2-(1,3,4-oxadiazol-2-yl)-5-oxa-2-azaspiro[3.4]octan-7-yl)piperidin-4-yl)-4-fluorophenoxy)cyclobutyl)propan-2-ol or 2-((1R,3s)-3-(2-(1-((S)-2-(1,3,4-oxadiazol-2-yl)-5-oxa-2-azaspiro[3.4]octan-7-yl)piperidin-4-yl)-4-fluorophenoxy)cyclobutyl)propan-2-ol], in assay [1], the “M4 FDSS PA %” value turned out to be 70% and the pEC50 is 7.06. Besides, in assay [2], the “M1 FDSS PA %” value was determined as 66% and the pEC50 was 5.46.

For `Fc1ccc(OC2CCOCC2)c(C2CCN([C@@H]3COC4(C3)CN(c3ncco3)C4)CC2)c1` [Example 4E, (S)-7-(4-(5-fluoro-2-((tetrahydro-2H-pyran-4-yl)oxy)phenyl)piperidin-1-yl)-2-(oxazol-2-yl)-5-oxa-2-azaspiro[3.4]octane], in assay [1], the Emax came out at 81% and the pEC50 is 7.92. In addition, in assay [2], the Emax was 75% and the pEC50 is 6.01.

Consider `Fc1cc(O[C@@H]2CCOC2)c(C2CCN([C@@H]3COC4(C3)CN(c3nncs3)C4)CC2)cc1F` [Example 5M, (S)-7-(4-(4,5-difluoro-2-(((R)-tetrahydrofuran-3-yl)oxy)phenyl)piperidin-1-yl)-2-(1,3,4-thiadiazol-2-yl)-5-oxa-2-azaspiro[3.4]octane], for which, in assay [1], the Emax turned out to be 73% and the pEC50 is 7.24. In addition, in assay [2], the Emax is 66% and the pEC50 was 6.10.

Take `c1ccc(C2CCN([C@@H]3COC4(C3)CN(c3ncco3)C4)CC2)c(OC2CCOCC2)c1` [Example 4J, (S)-2-(oxazol-2-yl)-7-(4-(2-((tetrahydro-2H-pyran-4-yl)oxy)phenyl)piperidin-1-yl)-5-oxa-2-azaspiro[3.4]octane]: the Emax in assay [1] is 82%; in assay [2], 72%. Besides, the pEC50 is 7.52 in assay [1] and 5.78 in assay [2].

Regarding `c1ccc(C2CCN([C@@H]3COC4(C3)CN(c3nnco3)C4)CC2)c(C2CCOCC2)c1` [Example 3C, (S)-2-(1,3,4-oxadiazol-2-yl)-7-(4-(2-(tetrahydro-2H-pyran-4-yl)phenyl)piperidin-1-yl)-5-oxa-2-azaspiro[3.4]octane], the Emax in assay [1] was determined as 85%; in assay [2], 78%. In addition, the figures for the pEC50 in assay [1] and in assay [2] were 6.74 and 5.41, respectively.

On to `C[C@H](Oc1ccc(F)cc1C1CCN([C@@H]2COC3(C2)CN(c2nnco2)C3)CC1)C1CCOCC1` [Example 2X, (S)-7-(4-(5-fluoro-2-((S)-1-(tetrahydro-2H-pyran-4-yl)ethoxy)phenyl)piperidin-1-yl)-2-(1,3,4-oxadiazol-2-yl)-5-oxa-2-azaspiro[3.4]octane or(S)-7-(4-(5-fluoro-2-((R)-1-(tetrahydro-2H-pyran-4-yl)ethoxy)phenyl)piperidin-1-yl)-2-(1,3,4-oxadiazol-2-yl)-5-oxa-2-azaspiro[3.4]octane], for which, in assay [1], the “M4 FDSS PA %” value was found to be 40% and the pEC50 is 5.75. For the same molecule, in assay [2], the “M1 FDSS PA %” value was 42% and the pEC50 was 4.95.
